Experimental data published in PubChem BioAssay (NCI).
“And” between values parts separate entries of the source, which are not always exact repeats. Equal values may be shown once.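 Cells were grown in 96-well plates and exposed to each compound for 48 hours at five concentrations; endpoints were interpolated linearly between bracketing concentrations, or set to the highest concentration if not reached. Here, GI50 denotes the concentration required for 50% inhibition of growth. TGI: concentration producing complete growth inhibition.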 Where a SMILES comes first, the peptide text is derived from it. [ ]: non-standard residue; d: D form. pGlu = O=C1CC[CH](C(=O)O)N1

What was measured:
Experiment in all cases: NCI tumour cell line growth inhibition, 48 h
SK-MEL-5 melanoma = system: SK-MEL-5 melanoma
786-0 renal = system: 786-0 renal
OVCAR-5 ovarian = system: OVCAR-5 ovarian
K-562 leukemia = system: K-562 leukemia
HT29 colon = system: HT29 colon
CAKI-1 renal = system: CAKI-1 renal
A549 NSCLC = system: A549 NSCLC
UACC-257 melanoma = system: UACC-257 melanoma

| SMILES | GI50 (SK-MEL-5 melanoma) | TGI (SK-MEL-5 melanoma) | GI50 (786-0 renal) [µM] | TGI (786-0 renal) [µM] | GI50 (OVCAR-5 ovarian) [µM] | TGI (OVCAR-5 ovarian) [µM] | GI50 (K-562 leukemia) [µM] | TGI (K-562 leukemia) [µM] | GI50 (HT29 colon) [µM] | TGI (HT29 colon) [µM] | GI50 (CAKI-1 renal) [µM] | TGI (CAKI-1 renal) [µM] | GI50 (A549 NSCLC) [µM] | TGI (A549 NSCLC) [µM] | GI50 (UACC-257 melanoma) [µM] | TGI (UACC-257 melanoma) [µM] |
| --- | --- | --- | --- | --- | --- | --- | --- | --- | --- | --- | --- | --- | --- | --- | --- | --- |
| Oc1c(-c2nnc(-c3ccccc3Cl)o2)sc2nnc(-c3ccccc3)c(-c3ccccc3)c12 | 5.99 µM | 19.8 µM | 7.22 | > 100 | 7.48 | > 100 | 3.28 | > 100 | 4.06 | 20.8 | 0.501 | 24.6 | 4.31 | 61.5 | 8.09 | 62.7 |
| Cc1c[n+](=O)c2ccccc2n1[O-] | – | > 100 µM | – | > 100 | – | > 100 | – | > 100 | – | > 100 | – | > 100 | – | > 100 | – | > 100 |
| O.O.[NH-]C1(C(=O)O)CCCC1.[NH-]C1(C(=O)O)CCCC1.[Ni+2] | – | > 100 µM | > 100 | > 100 | – | > 100 | – | > 100 | – | > 100 | – | > 100 | – | > 100 | – | > 100 |
| COc1ncnc2c(-c3ccccc3)cn(COCc3ccccc3)c12 | 1.13 µM | 2.34 µM | 4.55 | > 100 | 47.8 | > 100 | 3.32 | > 100 | 3.49 | > 100 | 3.02 | > 100 | 3.3 | 28.7 | 2.74 | 9.31 |
| COc1cccc(N2CCN(CC(=O)N3CCN(c4nnc(-c5ccc(Cl)cc5)c(-c5ccc(Cl)cc5)n4)CC3)CC2)c1 | 8.55 µM | > 100 µM | 16.3 | 62.3 | > 100 | > 100 | 9.89 | > 100 | 6.47 | > 100 | 14.8 | > 100 | 38.1 | > 100 | 51.7 | > 100 |
| CC[C@@H]1c2c(C#N)ncn2-c2cnc(Nc3ccc(C(=O)NC4CCN(C5CCN(CC6CC6)CC5)CC4)cc3OC)nc2N1C1CCCC1 | 0.13 µM and 0.182 µM | 1.52 µM and 1.68 µM | 0.164 | 1.2 | 0.0449 | 1.39 | 0.0337 | 0.308 | 0.036 | 0.135 | 1.62 | 3.88 | 0.0401 | 1.12 | 0.0431 | 1.67 |
| ClCc1cccc2c(CCl)cccc12 | 8.23 µM | 21.4 µM | 3.93 | 18.9 | 12.7 | 27.9 | 10.5 | > 100 | 2.88 | 11.2 | 1.48 | 4.28 | 8.77 | 24 | 2.6 | 12.6 |
| CN(CCO)CC[C@H](CSc1ccccc1)Nc1ccc(S(=O)(=O)NC(=O)c2ccc(N3CCC([C@@H](O)c4ccccc4-c4ccc(Cl)cc4)CC3)cc2)cc1S(=O)(=O)C(F)(F)F | 1.69 µM | 3.25 µM | 3.62 | 10.1 | 4.6 | > 50.4 | 3.4 | > 100 | 7.45 | 60.6 | – | > 29.2 | > 100 | > 100 | 4.85 | 30.6 |
| O=C1C(Cl)=C(Nc2cccc(F)c2)C(=O)N1Cc1ccc(Cl)cc1 | 0.403 µM | 2.19 µM | 0.305 | 3.98 | 4.58 | 22.4 | 0.206 | > 32.1 | 0.911 | 12.9 | 1.71 | 13.8 | 1.73 | 16.9 | 3.95 | 20.8 |
| COC(=O)c1ccc(-c2nc3cc(Cl)c(Cl)cc3nc2C#N)cc1 | > 100 µM | > 100 µM | > 100 | > 100 | – | – | > 100 | > 100 | > 100 | > 100 | > 100 | > 100 | > 100 | > 100 | > 100 | > 100 |
| COc1ccc2[nH]cc(-c3ccc(-c4c[nH]c5ccc(OC)cc45)s3)c2c1 | 5.05 µM | 17.6 µM | 2.36 | 7.64 | 6.43 | 18.7 | 2.54 | 7.3 | 2.06 | 4.51 | 5.54 | 19 | 3.94 | 21.9 | 11.4 | > 46.5 |
| C[C@@]1(C(=O)O)CCC[C@]2(C)C1CC[C@@]13CC(=O)[C@@](CO)(CC[C@]12O)C3 (some centres undefined) | > 100 µM | > 100 µM | > 100 | > 100 | > 100 | > 100 | > 100 | > 100 | > 100 | > 100 | > 100 | > 100 | > 100 | > 100 | > 100 | > 100 |
| O=C(Nc1ccc([As](=O)(O)O)cc1)Nc1cccc(Cl)c1Cl | – | > 100 µM | – | > 100 | – | > 100 | – | > 100 | – | > 100 | – | > 100 | – | > 100 | – | > 100 |
| NS(=O)(=O)c1ccc(-n2nc(-c3ccc(Cl)cc3)cc2-c2cc(O)ccc2O)cc1 | 15.2 µM | 32.3 µM | 5.18 | 16.7 | 15.7 | 31.1 | 4.9 | 21.2 | – | – | 7.9 | 22.8 | 12.2 | 30.4 | 11.1 | 25.6 |
| N=C1C(c2nc3ccccc3s2)=C(O)CN1c1ccc(F)c(Cl)c1 | 14.6 µM | 49.5 µM | 22.7 | 57.1 | 35.9 | > 100 | 31.1 | > 100 | 28.9 | > 100 | 14.8 | 98.1 | 11.2 | 62.2 | 22.9 | > 100 |
| O=c1[nH]c(=O)c2cn[nH]c2[nH]1 | > 100 µM | > 100 µM | > 100 | > 100 | > 100 | > 100 | > 100 | > 100 | > 100 | > 100 | > 100 | > 100 | > 100 | > 100 | > 100 | > 100 |
| CC(=O)NC1C(OC[C@@H](CC(=O)N[C@@H](CC(=O)O)CC(=O)N[C@H](CC(=O)N[C@@H](CCCN)CC(=O)N[C@@H](CCCN)CC(=O)N[C@H](CC(N)=O)C(C)C)C(C)C)NC(=O)C[C@@H](N)C(C)C)OC(CO)C(O)C1O (some centres undefined) | > 100 µM | > 100 µM | > 100 | > 100 | > 100 | > 100 | > 100 | > 100 | > 100 | > 100 | > 100 | > 100 | > 100 | > 100 | > 100 | > 100 |
| N#Cc1ccc(OCc2nc(N)nc(N)c2-c2ccc(Cl)c(Cl)c2)cc1 | 0.724 µM | 13.2 µM | 1.48 | > 100 | 2.38 | > 100 | 0.359 | > 100 | 0.592 | > 100 | 3.09 | > 100 | 0.405 | 15.8 | 0.593 | 37.2 |
| C=C(CN1C(=O)CN(C)C1=O)c1ccc(C(=O)Nc2ccccc2N)cc1 | 12.2 µM | 32.8 µM | 30.1 | > 100 | 3.56 | 85.2 | 5.9 | 74.5 | 10.9 | 41.5 | 18.6 | 58.7 | 25.4 | > 100 | 5.89 | 30.4 |
| CCNC(=O)C1CCCN1C(=O)C(CCCN=C(N)N)NC(=O)C(CC(C)C)NC(=O)C(CC(C)C)NC(=O)C(Cc1ccc(O)cc1)NC(=O)C(CO)NC(=O)C(Cc1c[nH]c2ccccc12)NC(=O)C(Cc1cnc[nH]1)NC(=O)C1CCC(=O)N1 (centres undefined) ([pGlu]HWSYLLRP-NHEt; configuration not given here) | > 100 µM | > 100 µM | > 100 | > 100 | > 100 | > 100 | > 100 | > 100 | > 100 | > 100 | > 100 | > 100 | > 100 | > 100 | > 100 | > 100 |
| CCOC(=O)/C(C=Nc1ccc(-c2nc3ccccc3[nH]2)cc1)=C(/C)O | 7.71 µM | 15.5 µM | 11 | 23.5 | 17.1 | 36.3 | 4.51 | 14.8 | – | – | 17.6 | > 50 | 12 | 29.9 | 11.5 | 28.3 |
| COc1ccc(-c2cc3c(c4cc(OC)ccc24)C(=O)OC3=O)cc1 | – | > 100 µM | – | > 100 | – | > 100 | – | > 100 | – | > 100 | – | > 100 | – | > 100 | – | > 100 |
| CCN(Cc1ccc(Cl)cc1)c1ccc(CO)c(Cl)c1 | 2.58 µM | 13.2 µM | 2.19 | 13.3 | 0.258 | 2.04 | 1.87 | > 45.5 | 3.12 | 13.5 | 0.563 | 7.45 | 1.35 | 14.3 | 0.145 | 0.512 |
| O=C(CCCCCCNC(=O)c1cnc(N(c2ccccc2)c2ccccc2)nc1)NO | 1.82 µM | 5.48 µM | 6.18 | > 73.1 | 3.14 | 26.1 | 2.47 | > 100 | 2.29 | > 35.4 | 6.38 | 43.3 | 6.12 | > 92.7 | 2.23 | 30.5 |
| CCN1C(=O)N(CC)C2C1NN=c1s/c(=C\c3cccc(F)c3)c(=O)n12 (centres undefined) | 0.131 µM | 2.33 µM | 0.657 | > 100 | 0.556 | > 100 | 0.041 | > 100 | 0.0859 | > 100 | 0.0711 | > 100 | 0.282 | > 100 | 30 | > 100 |
| C/C=C(\C)C(=O)NC1=CC[C@@]2(C)C(=CCC3C2CC[C@@]2(C)C3CC[C@@H]2C(C)N(C)C)C1=O (some centres undefined) | 1.39 µM | 2.95 µM | 2.54 | 7.45 | 4.78 | 25.4 | 0.451 | 2.86 | 0.57 | 2.6 | 2.86 | 11.4 | 4.99 | 23.4 | 2.88 | 9.36 |
| COc1ccc(/C=C/C(=O)c2cc(OC)c(OC)c(OC)c2)cc1OCc1cn(Cc2ccc(F)cc2)nn1 | 3.24 µM | 13.3 µM | 4.44 | > 100 | 3.22 | > 100 | 3.6 | > 100 | 3 | 7.3 | 4.79 | > 100 | 2.63 | 9.13 | 4.9 | > 100 |
| CC(C)Cn1cnc2c(SCc3ccc(Cl)cc3Cl)nc(N)nc21 | – | 22.8 µM | – | > 100 | – | > 100 | – | > 100 | – | > 100 | – | > 100 | – | > 100 | – | 74.6 |
| CCCCON(OC(=O)c1ccc2ccccc2c1)C(=O)c1ccccc1 | > 100 µM | > 100 µM | 73.4 | > 100 | > 100 | > 100 | 41.7 | > 100 | > 100 | > 100 | > 100 | > 100 | > 100 | > 100 | > 100 | > 100 |
| C[C@H](NC(=O)[C@@H](C)N)[C@H](Oc1ccc2c(cnn2-c2ccc(F)cc2)c1)c1ccc2c(c1)OCCO2 | 1.52 µM | 2.94 µM | 3.77 | 14.3 | 2.29 | 7.11 | 1.98 | 4.7 | 1.87 | 3.84 | 1.09 | 4.79 | 1.36 | 12.6 | 1.94 | 3.61 |
